Molecules are shown by their SMILES. Bounds are passed on as bounds.

The subject of assay [1] is A549. The experiment in a line: Cytotoxicity against human A549 cells assessed as inhibition of cell growth incubated for 72 hrs by MTT assay. The following applies: A549, 72 h. It is filed as functional, cell-based. In general terms: Tetrazolium assays rely on reduction of a dye to a coloured formazan, in cell work by metabolically active cells.
Assay [2] relates to A549. Kind of assay: Induction of apoptosis in human A549 cells assessed as caspase 3/7 positive cells at 100 uM incubated for 48 hrs by […] staining and caspase 3/7 reagent based analysis relative to control. It is filed as functional.
Assay [3] deals with A549. Kind of assay: Induction of apoptosis in human A549 cells assessed as caspase 3/7 positive cells at 31.6 uM incubated for 48 hrs by […] staining and caspase 3/7 reagent based analysis relative to control. It is filed as functional.
A short description of assay [4]: Induction of caspase3/7-mediated apoptosis in human A549 cells assessed as increase in mean fluorescence intensity at 10 to 100 uM incubated for 48 hrs. It is filed as functional. The conditions noted are these: dose 10-100 µM.
A short description of assay [5]: Cytotoxicity against cisplatin-resistant mouse MB49 cells assessed as inhibition of cell growth incubated for 72 hrs by MTT assay. It is filed as functional, cell-based. The conditions noted are these: MB49, 72 h.
Assay [6] in a line: Cytotoxicity against cisplatin-sensitive mouse MB49 cells assessed as inhibition of cell growth incubated for 72 hrs by MTT assay. The conditions noted are these: MB49, 72 h. It is filed as functional, cell-based.
Another assay relates to HCT-116. The experiment in a line: Cytotoxicity against human HCT-116 cells assessed as inhibition of cell growth incubated for 72 hrs by MTT assay. It is filed as functional, cell-based. The conditions noted are these: HCT-116, 72 h.

Consider `CC(C)[C@@H](C)/C=C/[C@@H](C)[C@H]1CC[C@]2(C3=C[C@H](O)C4=C[C@@H](O)CC[C@]4(C)C3=O)OC(=O)C[C@]12C`, for which the IC50 was 5.3 µM with A549 [1], 12.7 µM in assay [5], 12.7 µM in assay [6] and 4.8 µM with HCT-116. For the same compound, the Activity was 81.9% in the assay on A549 [2], 21.1% in the assay on A549 [3] and 2000 in assay [4].
As to `CC(C)[C@@H](C)/C=C/[C@@H](C)[C@H]1CC[C@]2(C3=CC(=O)[C@@H]4C[C@H](O)CC[C@]4(C)C3=O)OC(=O)C[C@]12C`, the IC50 in the assay on A549 [1] was more than 100 µM; in assay [5], more than 100 µM; in assay [6], more than 100 µM; in the assay on HCT-116 it was 57.8 µM.
With `CC(C)[C@@H](C)/C=C/[C@@H](C)[C@H]1CC[C@]2(C3=CC(=O)C4=CC(=O)CC[C@]4(C)C3=O)OC(=O)C[C@]12C`, the IC50 in the assay on A549 [1] was determined as 54.3 µM; in assay [5], 54.3 µM; in assay [6], 53.6 µM; with HCT-116, 45 µM.
Take `CC(C)[C@@H](C)/C=C/[C@@H](C)[C@H]1CC[C@]2(C3=C[C@H](O)[C@@H]4C[C@H](O)CC[C@]4(C)C3=O)OC(=O)C[C@]12C`: the IC50 came out at 19.7 µM in the assay with A549 [1], 14.2 µM in assay [5], 34.1 µM in assay [6] and 14.6 µM in the assay on HCT-116.

One may read the IC50 as the concentration at which inhibition is half-maximal.

The record behind these values is ChEMBL document CHEMBL5252559, “Altersteroids A-D, 9,11-Secosteroid-Derived γ-Lactones from an Alternaria sp” (J Nat Prod, 2023).
